Source: PMC11758220, “Identification of a Privileged Scaffold for Inhibition of Sterol Transport Proteins through the Synthesis and Ring Distortion of Diverse, Pseudo-Natural Products” (ACS Central Science, 2025)

Tests used:
Type in all cases: binding
Aster-A = molecular target: T1, Aster-A (Homo sapiens, UniProt Q96CP6); test: Fluorescence polarisation (FP) competition with NBD-cholesterol, Aster-A; conditions: for IC50: mean of three experiments run in technical duplicates; for inhibition at 10 µM / Aster-A (FP) inhibition: single dose, Dose = 10 µM
T1 construct: Aster-A(359-547); GST (PreScission-cleavable) (N, cleaved yes); made in house; host or cells: E. coli OverExpress C41
T1 sequence (Q96CP6 359-547): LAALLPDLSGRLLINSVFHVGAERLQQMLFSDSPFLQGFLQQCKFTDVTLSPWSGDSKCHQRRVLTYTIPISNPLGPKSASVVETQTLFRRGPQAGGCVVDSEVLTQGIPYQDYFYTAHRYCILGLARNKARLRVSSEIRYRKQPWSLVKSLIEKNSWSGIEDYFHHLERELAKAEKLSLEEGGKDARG
Text: (§1) Protein expression constructs
(§2) Human ASTER domains of Aster-A(359-547), -B(364-552) and -C(318-504) were subcloned into a pGEX-6p-2rbs vector, thus introducing the cloning artifact ‘GPLGS’.3 The pGEX-6P-1-GST-OSBP(377- […]
(§3) a gift from James H. Hurley (University of California).4 The pHIS_2His6_Thrombin_STARD4(2-205;C75S) plasmid was a gift from Young Jun Im (Chonnam National University).5 STARD5A was a gift from Nicola Burgess-Brown (Addgene plasmid #42392; http://n2t.net/addgene:42392; […]
(§4) Protein expression and purification […]
(§5) vectors including an N-terminal PreScission-cleavable glutathione S-transferase (GST)-tag were expressed in Escherichia coli (E. coli) OverExpress C41 in Terrific Broth (TB) medium for 16 h at 18 °C after the induction with 0.1 mM isopropyl β-D-1-thiogalactopyranoside (IPTG). Cells were harvested at 3500 × g for 15 minutes and lysed by sonication in buffer containing 50 mM HEPES pH 7.5, 300 mM NaCl, 10 %v/v glycerol, 5 mM dithiothreitol (DTT), 0.1 %v/v Triton X-100 and protease inhibitor mix HP plus (Serva). The lysate was purified by affinity chromatography on a GSTrap FF column (Cytiva) using an ÄKTA Start (Cytiva) in buffer containing 50 mM HEPES pH 7.5, 300 mM NaCl, 10 %v/v glycerol, 5 mM DTT and 0.01 %v/v Triton X-100. The GST-tag was cleaved overnight on the column at 4 °C. The Aster sterol binding domains were further purified by size-exclusion chromatography (SEC) on a HiLoad 16/600 Superdex 75 pg (Cytiva) in buffer containing 20 mM HEPES pH 7.5, 300 mM NaCl, 10 %v/v […]
(§6) STARD5(6-213) harboring an N-terminal His6-Tag were expressed in E. coli BL21(DE3) in Luria-Bertani Broth (LB) medium for approximately 16 h at 18 °C after induction with 0.15 mM IPTG. Cells were harvested at 3500 × g for 15 minutes and lysed by sonication in buffer containing 50 mM HEPES pH 7.5, 150 mM NaCl, 5 %v/v glycerol, 5 mM DTT, 0.1 %v/v Triton X -100 and ethylenediaminetetraacetic acid (EDTA)-free protease inhibitor cocktail (Sigma-Aldrich). The cleared lysate was purified by affinity chromatography on a Ni-NTA Superflow Cartridge (Qiagen) using an ÄKTA Start (Cytiva) in buffer containing 50 mM HEPES pH 7.5, 150 mM NaCl, 5 %v/v glycerol, 5 mM DTT. START domains were eluted by using elution buffer containing 50 mM HEPES pH 7.5, 150 mM NaCl, 5 %v/v glycerol, 5 mM DTT and 500 mM imidazole. Proteins were further purified by SEC on a HiLoad 16/600 Superdex 75 pg (Cytiva) in buffer containing 20 mM HEPES pH 7.5, 150 mM NaCl, 5 %v/v glycerol and 2 mM DTT.
(§7) The ORP domain of human OSBP(377-807) in the pGEX-6p-1 vector with an N-terminal PreScission-cleavable GST-tag was expressed in E. coli OverExpress C41 in LB medium for 16 h at 18 °C after induction with 0.1 mM IPTG. Cells were harvested at 3500 × g for 15 minutes and lysed by sonication in buffer containing 20 mM HEPES pH 7.5, 300 mM NaCl, 10 %v/v glycerol, 5 mM DTT, 0.1 %v/v Triton X-100 and EDTA-free protease inhibitor cocktail (Sigma-Aldrich). The cleared lysate was purified by affinity chromatography on a GSTrap HF column (Cytiva) using an ÄKTA Start (Cytiva) in buffer containing 20 mM HEPES pH 7.5, 300 mM NaCl, 10 %v/v glycerol, 5 mM DTT. OSBP(377 -807) was eluted by using elution buffer containing 20 mM HEPES pH 7.5, 300 mM NaCl, 10 %v/v glycerol, 5 mM DTT and 10 mM reduced glutathione. Proteins were further purified by SEC on a HiLoad 16/600 Superdex 75 pg (Cytiva) using an ÄKTA Explorer (Cytiva) in buffer containing 20 mM HEPES pH 7.5, 150 mM NaCl, 10 %v/v glycerol and 2 mM DTT.
(§8) The ORP domains of human ORP1(534-950) in pET24b(+) and ORP2(49-480) in the pET24b(+) vector including an N-terminal His6-Tag were expressed in E. coli BL21(DE3) in TB medium for approximately 16 h at 18 °C after induction with 0.1 mM IPTG. Cells were collected at 3500 × g for 15 minutes and lysed by sonification in buffer containing 10 mM Tris-HCl pH 8, 300 mM NaCl, 5 % glycerol, 2 mM DTT, 0.1 % Triton X-100 and EDTA-free protease inhibitor cocktail (Sigma-Aldrich). The cleared […]

Aster-B = molecular target: T2, Aster-B (Homo sapiens, UniProt Q3KR37); test: Fluorescence polarisation (FP) competition with NBD-cholesterol, Aster-B; conditions: for IC50: mean of three experiments run in technical duplicates; for inhibition at 10 µM / Aster-B (FP) inhibition: single dose, Dose = 10 µM
T2 construct: -B(364-552); GST (PreScission-cleavable) (N, cleaved yes); made in house; host or cells: E. coli OverExpress C41
T2 sequence (Q3KR37 364-552): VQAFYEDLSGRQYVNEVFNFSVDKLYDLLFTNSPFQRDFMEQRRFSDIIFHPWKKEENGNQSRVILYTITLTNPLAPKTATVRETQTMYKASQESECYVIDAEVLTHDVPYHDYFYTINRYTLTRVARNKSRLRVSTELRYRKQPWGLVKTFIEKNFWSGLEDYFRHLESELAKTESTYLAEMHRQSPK
Text: as §1, §2, §3, §4, §5, §6, §7, §8

STARD1 = molecular target: T3, STARD1 (Homo sapiens, UniProt P49675); test: Fluorescence polarisation (FP) competition with NBD-cholesterol, STARD1; conditions: for IC50: mean of three experiments run in technical duplicates; for inhibition at 10 µM / STARD1 (FP) inhibition: single dose, Dose = 10 µM
T3 construct: STARD1(66-284); made in house; host or cells: E. coli BL21(DE3)
T3 sequence (P49675 66-284): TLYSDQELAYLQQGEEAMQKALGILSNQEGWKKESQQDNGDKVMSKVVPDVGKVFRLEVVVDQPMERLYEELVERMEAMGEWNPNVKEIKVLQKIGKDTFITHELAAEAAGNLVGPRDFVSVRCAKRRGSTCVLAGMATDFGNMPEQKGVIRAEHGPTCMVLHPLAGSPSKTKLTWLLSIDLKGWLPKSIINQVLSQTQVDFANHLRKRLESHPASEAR

Compound | IC50 (Aster-A) [µM] | inhibition at 10 µM (Aster-A) [%] | IC50 (Aster-B) [µM] | inhibition at 10 µM (Aster-B) [%] | IC50 (STARD1) [µM] | inhibition at 10 µM (STARD1) [%] | Aster-A (FP) inhibition (Aster-A) [%] | STARD1 (FP) inhibition (STARD1) [%] | Aster-B (FP) inhibition (Aster-B) [%]
C[C@]12CC[C@@H]3C[C@H]1CC[C@@]21C(=Nc2ccc(Br)cc21)O3 (racemic) [Compound 15b] | 4.3 | 67 | > 80 | 19 | > 80 | 27 |  |  | 
CC12CCC3CC1CCC21C(=Nc2ccc(N4CCOCC4)cc21)O3 (racemic) [Compound 19a] | 0.77 | 60 | > 80 | 14 | > 80 | 20 |  |  | 
CC12CCC3CC1CCC21C(=Nc2ccc(Br)cc21)O3 (single isomer, unassigned; (+)) [(+)-15b] | 35 | 2 | > 80 | 3.33 | > 80 | 7 |  |  | 
CC12CCC3CC1CCC21C(=Nc2ccc(N4CCOCC4)cc21)O3 (single isomer, unassigned; (+)) [(+)-19a] | 15.4 |  | > 80 | 7.5 | > 80 |  | 12 | 12 | 
CC12CCC3CC1CCC21C(=Nc2ccc(N4CCOCC4)cc21)O3 (single isomer, unassigned; (-)) [(−)-19a] | 0.46 |  | > 80 |  | > 80 |  | 79 | 30 | 7
C[C@@]12CC[C@H]3C[C@@H]1CC[C@]21C(=Nc2ccc(Br)cc21)O3 [(−)-15b] | 4.14 | 80 | > 80 | 14 | 42.6 | 38 |  |  | 
CC(C)Oc1ccc(C(=O)Nc2nc3c(s2)CN(C(=O)OC(C)(C)C)CC3)cc1 [Autogramin-2, reference compound] | 1.09 |  | > 80 |  | > 80 |  | 70 | 22 | 5
Cc1c2c(nc3ccccc13)[C@@]1(C)CC[C@@H](O)C[C@H]1CC2 [Compound 2a] |  | 1 |  | 14 |  | 30 |  |  | 
C[C@]12CC[C@@H](O)C[C@H]1CCc1c2nc2ccccc2c1-c1ccccc1 [Compound 2b] |  |  |  |  |  |  | -2 | -3.33 | 2.5
Cc1c2c(nc3cc(Br)ccc13)[C@@]1(C)CC[C@@H](O)C[C@H]1CC2 [Compound 2c] |  |  |  |  |  |  | -1 | 70 | 9
C[C@]12CC[C@@H](O)C[C@H]1CCc1c2nc2ccccc2c1-c1ccc(F)cc1 [Compound 2d] |  | -6 |  | 7.5 |  | -8 |  |  | 
C[C@]12CC[C@@H](O)C[C@H]1CCc1c2nc2ccc(Cl)cc2c1-c1ccccc1 [Compound 2e] |  |  |  |  |  |  | -4 | -8 | 2.5
C[C@]12CC[C@@H](O)C[C@H]1CCc1c2[nH]c2ncccc12 [Compound 3] |  | -2 |  | 8 |  | -3.33 |  |  | 
C[C@]12CC[C@@H](O)C[C@H]1CCC[C@]21Nc2ccccc2-n2cccc21 [Compound 4] |  | -9 |  | -0.833 |  | 35 | -8 | 20 | -1.67
C[C@]12CC[C@@H](O)C[C@H]1CCC[C@]21NC(=O)c2ccccc2N1 [Compound 5a] |  | 0 |  | 10 |  | -1.67 | -2 | 1.67 | 7
C[C@]12CC[C@@H](O)C[C@H]1CCC[C@]21NC(=O)c2ccc(F)cc2N1 [Compound 5b] |  | -1 |  | 15 |  | 3.33 | -2 | 1.67 | 8
COc1ccc2c(c1)C(=O)N[C@]1(CCC[C@@H]3C[C@H](O)CC[C@@]31C)N2 [Compound 5c] |  |  |  | 12 |  | 5 | -1 | -3.33 | 10
C[C@]12CC[C@@H](O)C[C@H]1CCc1nc3ccccc3nc12 [Compound 7a] |  | 14 |  | 23 |  | 23 |  |  | 
Cc1cc2nc3c(nc2cc1C)[C@@]1(C)CC[C@@H](O)C[C@H]1CC3 [Compound 7b] |  | -1 |  | 7.5 |  | 12 |  |  | 
C[C@]12CC[C@@H](O)C[C@H]1CCc1nc3cc(F)c(F)cc3nc12 [Compound 7c] |  |  |  |  |  |  | -1 | 12 | 4
C[C@]12CC[C@@H](O)C[C@H]1CCc1nc3cc(Cl)c(Cl)cc3nc12 [Compound 7d] |  |  |  |  |  |  | 1 | 17 | 11
C[C@]12CC[C@@H](O)C[C@H]1CCc1nc3cc(Br)c(Br)cc3nc12 [Compound 7e] |  |  |  |  |  |  | -1 | 13 | 12
C[C@]12CC[C@@H](O)C[C@H]1CCc1sc(N)nc12 [Compound 8a] |  | -1 |  | 3.33 |  | 5 |  |  | 
